We go through 29 compounds from patent US8569344B2, “N-piperidinyl acetamide derivatives as calcium channel blockers” (Zalicus Pharmaceuticals Ltd., priority 2008, dated 2013).

Some results are limits rather than exact numbers.

The term IC50 denotes the concentration at which inhibition is half-maximal.

The target of experiment [1] is T1, human α1H T-type channels (Homo sapiens, UniProt O95180).
T1 construct: expressed in transfected cells; host or cells: HEK 293
In words: T-type calcium channel block, whole cell patch clamp in HEK cells (α1H). The experiment is classed as cell-based. As to conditions: HEK cells, patch clamp, mainly non-inactivated protocol; values above 10 μM shown as 10 μM; read-out: T-type Calcium Channel Block α1H IC50. In general terms: In patch-clamp work, channel activity is measured electrically.

Experiment [2] concerns the target T2, human α1G T-type channels (Homo sapiens, UniProt O43497).
T2 construct: expressed in transfected cells; host or cells: HEK 293
In words: T-type calcium channel block, whole cell patch clamp in HEK cells (α1G). In kind it is cell-based. As to conditions: HEK cells, patch clamp, mainly non-inactivated protocol; values above 10 μM shown as 10 μM, below 0.30 μM shown as 0.30 μM; read-out: T-type Calcium Channel Block α1G IC50.

T2 sequence (O43497 whole entry): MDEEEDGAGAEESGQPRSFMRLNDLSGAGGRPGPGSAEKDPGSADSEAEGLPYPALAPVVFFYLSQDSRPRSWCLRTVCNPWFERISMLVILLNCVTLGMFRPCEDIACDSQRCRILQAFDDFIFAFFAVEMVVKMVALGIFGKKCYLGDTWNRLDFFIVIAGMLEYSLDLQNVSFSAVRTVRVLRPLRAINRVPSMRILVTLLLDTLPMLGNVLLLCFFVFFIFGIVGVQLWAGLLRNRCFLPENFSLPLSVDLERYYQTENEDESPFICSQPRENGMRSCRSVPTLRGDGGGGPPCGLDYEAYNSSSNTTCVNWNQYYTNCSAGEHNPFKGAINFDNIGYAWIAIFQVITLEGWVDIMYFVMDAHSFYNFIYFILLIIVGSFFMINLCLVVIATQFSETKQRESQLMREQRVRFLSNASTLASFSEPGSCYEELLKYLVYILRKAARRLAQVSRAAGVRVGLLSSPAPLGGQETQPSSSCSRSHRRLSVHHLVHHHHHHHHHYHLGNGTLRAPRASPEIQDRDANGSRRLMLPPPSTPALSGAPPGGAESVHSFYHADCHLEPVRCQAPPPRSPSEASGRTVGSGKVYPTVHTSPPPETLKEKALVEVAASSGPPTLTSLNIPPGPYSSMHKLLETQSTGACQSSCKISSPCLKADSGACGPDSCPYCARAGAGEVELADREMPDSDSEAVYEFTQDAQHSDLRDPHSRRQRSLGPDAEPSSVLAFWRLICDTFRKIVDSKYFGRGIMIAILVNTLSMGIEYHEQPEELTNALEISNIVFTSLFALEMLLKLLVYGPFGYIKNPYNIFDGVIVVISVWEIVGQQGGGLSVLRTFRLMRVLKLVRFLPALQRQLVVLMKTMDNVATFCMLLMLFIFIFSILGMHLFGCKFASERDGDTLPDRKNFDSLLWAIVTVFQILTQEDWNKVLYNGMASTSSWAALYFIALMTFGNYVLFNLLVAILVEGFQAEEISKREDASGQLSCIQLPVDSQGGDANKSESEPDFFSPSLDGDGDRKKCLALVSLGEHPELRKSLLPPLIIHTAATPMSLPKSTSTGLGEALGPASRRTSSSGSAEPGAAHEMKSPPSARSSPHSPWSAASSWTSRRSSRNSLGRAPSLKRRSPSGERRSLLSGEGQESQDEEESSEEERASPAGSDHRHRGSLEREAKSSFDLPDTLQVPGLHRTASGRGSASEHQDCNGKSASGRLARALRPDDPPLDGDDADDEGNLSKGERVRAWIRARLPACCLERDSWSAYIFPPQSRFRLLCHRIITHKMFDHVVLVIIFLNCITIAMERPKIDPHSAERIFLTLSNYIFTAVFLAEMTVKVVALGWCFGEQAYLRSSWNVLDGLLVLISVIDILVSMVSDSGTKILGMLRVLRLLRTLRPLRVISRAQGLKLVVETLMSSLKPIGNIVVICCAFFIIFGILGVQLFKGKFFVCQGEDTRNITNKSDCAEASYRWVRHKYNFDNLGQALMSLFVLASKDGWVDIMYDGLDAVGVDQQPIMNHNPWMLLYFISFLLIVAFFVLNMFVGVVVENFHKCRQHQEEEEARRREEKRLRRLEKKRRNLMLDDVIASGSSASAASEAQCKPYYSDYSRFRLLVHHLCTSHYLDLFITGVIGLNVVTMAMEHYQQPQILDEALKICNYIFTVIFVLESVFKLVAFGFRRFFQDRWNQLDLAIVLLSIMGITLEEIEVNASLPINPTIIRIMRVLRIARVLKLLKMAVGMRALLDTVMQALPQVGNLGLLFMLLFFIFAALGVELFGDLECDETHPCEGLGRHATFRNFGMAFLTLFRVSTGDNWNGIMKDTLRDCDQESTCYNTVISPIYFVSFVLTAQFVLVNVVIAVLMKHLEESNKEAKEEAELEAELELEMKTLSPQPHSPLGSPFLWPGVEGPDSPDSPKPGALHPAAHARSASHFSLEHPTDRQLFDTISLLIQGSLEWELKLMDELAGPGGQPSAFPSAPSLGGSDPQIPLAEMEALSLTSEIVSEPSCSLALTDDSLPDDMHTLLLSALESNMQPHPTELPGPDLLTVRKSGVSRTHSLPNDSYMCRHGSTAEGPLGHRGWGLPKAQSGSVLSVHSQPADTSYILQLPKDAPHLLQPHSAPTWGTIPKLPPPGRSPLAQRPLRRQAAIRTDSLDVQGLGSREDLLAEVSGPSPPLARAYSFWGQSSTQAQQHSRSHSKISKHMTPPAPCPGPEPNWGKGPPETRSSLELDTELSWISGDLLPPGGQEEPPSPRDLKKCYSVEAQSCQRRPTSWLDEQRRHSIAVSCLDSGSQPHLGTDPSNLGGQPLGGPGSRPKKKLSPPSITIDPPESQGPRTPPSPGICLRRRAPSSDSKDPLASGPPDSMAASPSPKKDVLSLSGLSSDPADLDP
T1 sequence (O95180 whole entry): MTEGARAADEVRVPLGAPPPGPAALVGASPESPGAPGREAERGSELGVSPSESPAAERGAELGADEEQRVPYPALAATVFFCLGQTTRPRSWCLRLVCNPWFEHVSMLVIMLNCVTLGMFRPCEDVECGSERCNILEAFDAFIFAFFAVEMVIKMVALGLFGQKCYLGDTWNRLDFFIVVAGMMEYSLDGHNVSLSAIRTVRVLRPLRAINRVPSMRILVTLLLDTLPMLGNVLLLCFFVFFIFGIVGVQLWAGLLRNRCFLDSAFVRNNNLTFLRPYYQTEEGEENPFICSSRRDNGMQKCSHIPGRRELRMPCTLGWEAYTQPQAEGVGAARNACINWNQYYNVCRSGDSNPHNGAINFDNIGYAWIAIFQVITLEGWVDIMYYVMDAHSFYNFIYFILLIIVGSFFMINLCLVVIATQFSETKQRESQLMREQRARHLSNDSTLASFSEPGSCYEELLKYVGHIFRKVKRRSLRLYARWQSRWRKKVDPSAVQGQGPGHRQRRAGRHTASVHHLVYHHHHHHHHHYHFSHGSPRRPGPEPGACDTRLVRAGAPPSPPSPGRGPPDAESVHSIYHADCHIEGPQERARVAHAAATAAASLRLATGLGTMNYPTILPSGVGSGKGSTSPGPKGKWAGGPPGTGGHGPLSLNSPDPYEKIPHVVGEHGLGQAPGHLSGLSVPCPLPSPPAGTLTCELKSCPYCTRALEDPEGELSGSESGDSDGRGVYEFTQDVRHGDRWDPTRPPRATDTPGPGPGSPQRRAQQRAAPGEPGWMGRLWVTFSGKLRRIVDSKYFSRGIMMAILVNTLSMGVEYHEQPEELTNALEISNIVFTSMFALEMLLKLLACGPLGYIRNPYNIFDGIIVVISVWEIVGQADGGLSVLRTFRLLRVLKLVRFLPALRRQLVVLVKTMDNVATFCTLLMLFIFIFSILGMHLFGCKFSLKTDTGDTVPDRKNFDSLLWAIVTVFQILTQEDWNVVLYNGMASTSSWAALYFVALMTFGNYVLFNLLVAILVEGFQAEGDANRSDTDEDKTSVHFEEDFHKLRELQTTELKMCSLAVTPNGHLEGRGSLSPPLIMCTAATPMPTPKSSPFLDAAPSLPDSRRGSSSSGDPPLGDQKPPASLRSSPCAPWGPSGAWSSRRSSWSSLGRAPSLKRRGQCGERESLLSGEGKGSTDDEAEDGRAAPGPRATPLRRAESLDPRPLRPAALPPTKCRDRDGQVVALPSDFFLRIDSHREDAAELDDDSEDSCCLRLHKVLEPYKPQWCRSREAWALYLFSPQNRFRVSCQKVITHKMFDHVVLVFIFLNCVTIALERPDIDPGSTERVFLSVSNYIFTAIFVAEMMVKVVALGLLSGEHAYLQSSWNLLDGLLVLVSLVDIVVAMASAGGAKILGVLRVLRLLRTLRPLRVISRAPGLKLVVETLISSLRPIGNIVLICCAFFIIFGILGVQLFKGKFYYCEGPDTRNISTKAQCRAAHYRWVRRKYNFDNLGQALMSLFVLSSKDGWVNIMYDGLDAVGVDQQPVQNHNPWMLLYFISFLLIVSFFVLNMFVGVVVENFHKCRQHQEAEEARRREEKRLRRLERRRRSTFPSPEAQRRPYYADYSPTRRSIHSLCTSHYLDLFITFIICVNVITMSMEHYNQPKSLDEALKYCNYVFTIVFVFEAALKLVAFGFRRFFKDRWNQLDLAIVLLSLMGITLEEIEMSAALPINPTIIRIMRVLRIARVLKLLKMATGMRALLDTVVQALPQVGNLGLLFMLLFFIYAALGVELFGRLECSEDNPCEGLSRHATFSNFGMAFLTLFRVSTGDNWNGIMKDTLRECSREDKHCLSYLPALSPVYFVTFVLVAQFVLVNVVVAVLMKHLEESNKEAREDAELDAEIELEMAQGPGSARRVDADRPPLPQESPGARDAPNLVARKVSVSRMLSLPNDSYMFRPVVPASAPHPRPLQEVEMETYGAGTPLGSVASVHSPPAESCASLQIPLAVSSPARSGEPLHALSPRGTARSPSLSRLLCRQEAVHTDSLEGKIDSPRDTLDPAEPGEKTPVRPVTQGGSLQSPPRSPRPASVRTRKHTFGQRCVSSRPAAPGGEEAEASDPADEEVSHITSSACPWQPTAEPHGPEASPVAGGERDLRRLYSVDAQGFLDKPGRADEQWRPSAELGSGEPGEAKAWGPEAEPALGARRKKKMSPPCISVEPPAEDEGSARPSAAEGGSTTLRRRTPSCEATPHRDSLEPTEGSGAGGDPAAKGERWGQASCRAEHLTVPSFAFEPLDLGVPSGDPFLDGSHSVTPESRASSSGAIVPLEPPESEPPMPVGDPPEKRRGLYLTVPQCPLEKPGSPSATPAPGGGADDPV

For `COC(=O)NC1(CN2CCC(CNC(=O)c3cc(C(F)(F)F)cc(C(F)(F)F)c3)CC2)CCCC1` [Compound 16, methyl 1-((4-((3,5-bis(trifluoromethyl)benzamido)methyl)piperidin-1-yl)methyl)cyclopentyl-carbamate], the IC50 in experiment [1] was 190 nM; in experiment [2] it was under 300 nM.
For `CC(C(=O)N1CCC[C@@H]1C(F)(F)F)N1CCC(CNC(=O)c2cc(F)cc(Cl)c2)CC1` (stereo partly drawn) [Compound 558, 3-chloro-5-fluoro-N-((1-(1-oxo-1-((R)-2-(trifluoromethyl)pyrrolidin-1-yl)propan-2-yl)piperidin-4-yl)methyl) benzamide], in that order: 460 nM and under 300 nM.
In the case of `CC1(NC(=O)CN2CCC(CNC(=O)c3ccccc3)CC2)CCC1` [Compound 528, N-((1-(2-(1-methylcyclobutylamino)-2-oxoethyl)piperidin-4-yl)methyl) benzamide], the results for the IC50 in experiment [1] and in experiment [2] were 8540 nM and over 10000 nM, respectively.
For `CC(C)(NC(=O)CN1CCC(CNC(=O)c2cccc(C(F)(F)F)c2)CC1)C(F)(F)F` [Compound 458, N-((1-(2-oxo-2-(1,1,1-trifluoro-2-methylpropan-2-ylamino)ethyl)piperidin-4-yl)methyl)-3-(trifluoromethyl)benzamide], in that order: 40 nM and under 300 nM.
Take `CC(C)(C)OC(=O)NCCN1CCC(CNC(=O)c2cc(Br)cc(C(F)(F)F)c2)CC1` [Compound 41, tert-butyl 2-(4-((3-bromo-5-(trifluoromethyl)benzamido)methyl)piperidin-1-yl)ethylcarbamate]: the IC50 was 150 nM in experiment [1] and under 300 nM in experiment [2].
Consider `Cc1ccc(-c2csc(NC(=O)CC3CCN(CC(O)C(C)(C)C)CC3)n2)cc1` (stereo not shown) [Compound 172, 2-(1-(2-hydroxy-3,3-dimethylbutyl)piperidin-4-yl)-N-(4-p-tolylthiazol-2-yl)acetamide], for which the IC50 was over 10000 nM in experiment [1] and 1620 nM in experiment [2].
For `CCONC(=O)CN1CCC(CNC(=O)c2cc(C(F)(F)F)cc(C(F)(F)F)c2)CC1` [Compound 486, N-((1-(2-(ethoxyamino)-2-oxoethyl)piperidin-4-yl)methyl)-3,5-bis(trifluoromethyl)benzamide], in that order: over 10000 nM and over 10000 nM.
For `O=C(NCC1CCN(CC2(NS(=O)(=O)CCC(F)(F)F)CC2)CC1)c1cc(C(F)(F)F)cc(C(F)(F)F)c1` [Compound 360, 3,5-bis(trifluoromethyl)-N-((1-((1-(3,3,3-trifluoropropylsulfonylamido)cyclopropyl)methyl)piperidin-4-yl)methyl)benzamide], in that order: 250 nM and under 300 nM.
For `O=C(NCC1CCN(CC(=O)N2CCC(F)CC2)CC1)c1cc(F)cc(C(F)(F)F)c1` [Compound 356, 3-fluoro-N-((1-(2-(4-fluoropiperidin-1-yl)-2-oxoethyl)piperidin-4-yl)methyl)-5-(trifluoromethyl)benzamide], in that order: 830 nM and 550 nM.
With `CC(C)(C)C(CN1CCC(CC(=O)NC(c2cccc(F)c2)c2cccc(F)c2)CC1)NS(=O)(=O)C1CC1` (stereo not shown) [Compound 221, N-(bis(3-fluorophenyl)methyl)-2-(1-(2-(cyclopropanesulfonamido)-3,3-dimethylbutyl)piperidin-4-yl)acetamide], the results for the IC50 in experiment [1] and in experiment [2] were over 10000 nM and 4080 nM, respectively.
For `CC(C)NC(=O)NC1(CN2CCC(CNC(=O)c3cc(C(F)(F)F)cc(C(F)(F)F)c3)CC2)CCCC1` [Compound 15, N-((1-((1-(3-isopropylureido)cyclopentyl)methyl)piperidin-4-yl)methyl)-3,5-bis(trifluoromethyl)benzamide], in that order: 3040 nM and 1030 nM.
For `COc1cc(F)cc(C(=O)NCC2CCN(CC(=O)N3CCC[C@@H]3C(F)(F)F)CC2)c1` [Compound 505, (R)-3-fluoro-5-methoxy-N-((1-(2-oxo-2-(2-(trifluoromethyl)pyrrolidin-1-yl)ethyl)piperidin-4-yl)methyl) benzamide], in that order: 580 nM and 770 nM.
As for `CN(CCN1CCC(CNC(=O)c2cc(F)cc(C(F)(F)F)c2)CC1)C(=O)CCC(F)(F)F` [Compound 517, 3-fluoro-N-((1-(2-(4,4,4-trifluoro-N-methylbutanamido)ethyl)piperidin-4-yl)methyl)-5-(trifluoromethyl)benzamide], the results for the IC50 in experiment [1] and in experiment [2] were 420 nM and 1100 nM, respectively.
For `CC(C)(C)NC(=O)CN1CCC(CNC(=O)/C=C/c2cc(F)cc(F)c2)CC1` [Compound 369, (E)-N-((1-(2-(tert-butylamino)-2-oxoethyl)piperidin-4-yl)methyl)-3-(3,5-difluorophenyl)acrylamide], in that order: 7010 nM and 6910 nM.
`CCCCCNCC(=O)N1CCC(CNC(=O)c2cc(F)cc(C(F)(F)F)c2)CC1` [Compound 267, 3-fluoro-N-((1-(2-(pentylamino)acetyl)piperidin-4-yl)methyl)-5-(trifluoromethyl)benzamide]: the figures for the IC50 in experiment [1] and in experiment [2] were 870 nM and 390 nM, respectively.
For `CC(C(=O)N1CCC[C@H]1C(F)(F)F)N1CCC(CNC(=O)c2cc(F)cc(Cl)c2)CC1` (stereo partly drawn) [Compound 548, 3-chloro-5-fluoro-N-((1-(1-oxo-1-((S)-2-(trifluoromethyl)pyrrolidin-1-yl)propan-2-yl)piperidin-4-yl)methyl)benzamide], in that order: 160 nM and under 300 nM.
Take `CC(C)(C)OC(=O)NCCN1CCC(CNC(=O)c2cc(C(C)(C)C)cc(C(C)(C)C)c2)CC1` [Compound 49, tert-butyl 2-(4-((3,5-di-tert-butylbenzamido)methyl)piperidin-1-yl)ethylcarbamate]: the values for the IC50 in experiment [1] and in experiment [2] were 7300 nM and 340 nM, respectively.
For `CC(C)(C)NC(=O)CN1CCC(CNC(=O)c2cc(Cl)cc(C(F)(F)F)c2)CC1` [Compound 380, N-((1-(2-(tert-butylamino)-2-oxoethyl)piperidin-4-yl)methyl)-3-chloro-5-(trifluoromethyl)benzamide], in that order: 110 nM and under 300 nM.
With `O=C(NCC1CCN(C(=O)CNCCCN2CCOCC2)CC1)c1cc(C(F)(F)F)cc(C(F)(F)F)c1` [Compound 244, N-((1-(2-(3-morpholinopropylamino)acetyl)piperidin-4-yl)methyl)-3,5-bis(trifluoromethyl)benzamide], the IC50 is over 10000 nM in experiment [1] and 7190 nM in experiment [2].
In the case of `CC(C)(C)OC(=O)NCCN1CCC(CNC(=O)c2cccc(C(F)(F)F)c2)CC1` [Compound 39, tert-butyl 2-(4-((3-(trifluoromethyl)benzamido)methyl)piperidin-1-yl)ethylcarbamate], the IC50 in experiment [1] was found to be 1170 nM; in experiment [2], 1310 nM.
For `O=C(NCC1CCN(CCNS(=O)(=O)CCCF)CC1)c1cc(F)cc(C(F)(F)F)c1` [Compound 308, 3-fluoro-N-((1-(2-(3-fluoropropylsulfonamido)ethyl)piperidin-4-yl)methyl)-5-(trifluoromethyl)benzamide], in that order: 880 nM and 1230 nM.
For `CN(CCN1CCC(CNC(=O)c2cc(F)cc(C(F)(F)F)c2)CC1)C(=O)C1(C(F)(F)F)CC1` [Compound 520, 3-fluoro-N-((1-(2-(N-methyl-1-(trifluoromethyl)cyclopropanecarbox-amido)ethyl)piperidin-4-yl)methyl)-5-(trifluoromethyl)benzamide], in that order: 190 nM and under 300 nM.
For `CCC1CCCN1CC(=O)N1CCC(CNC(=O)c2cc(F)cc(C(F)(F)F)c2)CC1` (stereo not shown) [Compound 280, N-((1-(2-(2-ethylpyrrolidin-1-yl)acetyl)piperidin-4-yl)methyl)-3-fluoro-5-(trifluoromethyl)benzamide], in that order: 5590 nM and 9700 nM.
`CN(CCN1CCC(CNC(=O)c2cc(F)cc(C(F)(F)F)c2)CC1)C(=O)C(C)(C)C` [Compound 515, 3-fluoro-N-((1-(2-(N-methylpivalamido)ethyl)piperidin-4-yl)methyl)-5-(trifluoromethyl)benzamide]: the IC50 in experiment [1] and in experiment [2] was 310 nM throughout.
As to `CC(C)(C)OC(=O)NCCN1CCC(CNC(=O)c2cccc(Cl)c2)CC1` [Compound 48, tert-butyl 2-(4-((3-chlorobenzamido)methyl)piperidin-1-yl)ethylcarbamate], the IC50 was 790 nM in experiment [1] and 1570 nM in experiment [2].
For `C[C@H]1CC[C@H](NCC(=O)N2CCC(CNC(=O)c3cc(C(F)(F)F)cc(C(F)(F)F)c3)CC2)CC1` [Compound 264, N-((1-(2-((1r,4r)-4-methylcyclohexylamino)acetyl)piperidin-4-yl)methyl)-3,5-bis(trifluoromethyl)benzamide], in that order: 530 nM and under 300 nM.
With `CCCCCNCC(=O)N1CCC(CNC(=O)c2cc(C(F)(F)F)cc(C(F)(F)F)c2)CC1` [Compound 241, N-((1-(2-(pentylamino)acetyl)piperidin-4-yl)methyl)-3,5-bis(trifluoromethyl)benzamide], the values for the IC50 in experiment [1] and in experiment [2] were 520 nM and under 300 nM, respectively.
For `O=C(NCC1CCN(CCNS(=O)(=O)C2CC2)CC1)c1cccc(OC(F)(F)F)c1` [Compound 234, N-((1-(2-(cyclopropanesulfonamido)ethyl)piperidin-4-yl)methyl)-3-(trifluoromethoxy)benzamide], in that order: 970 nM and 1450 nM.
For `CC(C)(C)OC(=O)NCCN1CCC(CNC(=O)c2cc(F)cc(F)c2)CC1` [Compound 47, tert-butyl 2-(4-((3,5-difluorobenzamido)methyl)piperidin-1-yl)ethylcarbamate], in that order: 880 nM and 3110 nM.
